The values below come from patent US20140024576A1, “HEPTOSE DERIVATIVES FOR USE IN THE TREATMENT OF BACTERIAL INFECTIONS” (priority 2010, published 2014).

One test concerns the target GmhA of E. coli (Escherichia coli, UniProt P63224). In words: Inhibition of the enzymatic activity of GmhA (luminescent assay). It counts as biochemical. The protocol: Inhibition of the Enzymatic Activity of GmhA (Luminescent Assay):
The assay buffer “AB” contained 50 mM Hepes pH7.5, 1 mM MnCl2, 25 mM KCl, 0.012% Triton-X100 and 1 mM dithiothreitol (DTT) and 0.1 μM Myelin basic protein (MBP). The following components were added in a white polystyrene Costar plate up to a final volume of 30 μL: 10 μL inhibitor dissolved in DMSO/water 50/50, and 20 μL GmhA of E. coli in AB. After 30 min of pre-incubation at room temperature, 30 μL of Substrates mix in AB were added in each well to a final volume of 60 μL. This reaction mixture was then composed of 2 nM GmhA, 3 μM sedoheptulose-7-phosphate (Sigma), 3 μM ATP (Sigma) and 50 nM HldE of E. coli in assay buffer. After 30 min of incubation at room temperature, 100 μL of the revelation mix were added to a final volume of 160 μL, including the following constituents at the respective final concentrations: 10000 light units/ml luciferase (Sigma), 20 μM D-luciferin (Sigma), 100 μM N-acetylcysteamine (Aldrich). Luminescence intensity was immediately measured on Luminoskan (Thermofischer) and converted into inhibition percentages. For IC50 determinations, the inhibitor was tested at 6 to 10 different concentrations, and the related inhibitions were fitted to a classical langmuir equilibrium model using XLFIT (IDBS).

Another test concerns the target HldE of E. coli (HldE-K) (Escherichia coli, UniProt P76658). The test is described as follows: Inhibition of the enzymatic activity of HldE-K (luminescent assay on kinase activity). The class given is biochemical. The protocol:
Inhibition of the Enzymatic Activity of HldE-K (Luminescent Assay On Kinase Activity):
The assay buffer “AB” contained 50 mM Hepes pH7.5, 1 mM MnCl2, 25 mM KCl, 0.012% Triton-X100 and 1 mM dithiothreitol (DTT) and 0.1 μM Myelin basic protein (MBP). The following components were added in a white polystyrene Costar plate up to a final volume of 30 μL: 10 μL inhibitor dissolved in DMSO/water 50/50, and 20 μL HldE of E. coli in AB. After 30 min of pre-incubation at room temperature, 30 μL of Substrates mix in AB were added in each well to a final volume of 60 μL. This reaction mixture was then composed of 3 nM HldE, 0.2 μM β-heptose-7-phosphate (custom synthesis) and 0.2 μM ATP (Sigma) in assay buffer. After 30 min of incubation at room temperature, 200 μL of the revelation mix were added to a final volume of 260 µL, including the following constituents at the respective final concentrations: 5000 light units/ml luciferase (Sigma), 30 μM D-luciferin (Sigma), 100 μM N-acetylcysteamine (Aldrich). Luminescence intensity was immediately measured on Luminoskan (Thermofischer) and converted into inhibition percentages. For IC50 determinations, the inhibitor was tested at 6 to 10 different concentrations, and the related inhibitions were fitted to a classical Langmuir equilibrium model using XLFIT (IDBS).

Molecules are shown by their SMILES.

GmhA of E. coli, sequence (P63224 whole entry): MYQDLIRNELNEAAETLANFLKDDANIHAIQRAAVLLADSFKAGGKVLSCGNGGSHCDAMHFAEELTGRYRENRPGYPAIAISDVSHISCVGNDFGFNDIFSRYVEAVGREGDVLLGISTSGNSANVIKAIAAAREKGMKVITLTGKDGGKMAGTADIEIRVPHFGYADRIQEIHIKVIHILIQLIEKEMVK
HldE of E. coli (HldE-K), sequence (P76658 whole entry): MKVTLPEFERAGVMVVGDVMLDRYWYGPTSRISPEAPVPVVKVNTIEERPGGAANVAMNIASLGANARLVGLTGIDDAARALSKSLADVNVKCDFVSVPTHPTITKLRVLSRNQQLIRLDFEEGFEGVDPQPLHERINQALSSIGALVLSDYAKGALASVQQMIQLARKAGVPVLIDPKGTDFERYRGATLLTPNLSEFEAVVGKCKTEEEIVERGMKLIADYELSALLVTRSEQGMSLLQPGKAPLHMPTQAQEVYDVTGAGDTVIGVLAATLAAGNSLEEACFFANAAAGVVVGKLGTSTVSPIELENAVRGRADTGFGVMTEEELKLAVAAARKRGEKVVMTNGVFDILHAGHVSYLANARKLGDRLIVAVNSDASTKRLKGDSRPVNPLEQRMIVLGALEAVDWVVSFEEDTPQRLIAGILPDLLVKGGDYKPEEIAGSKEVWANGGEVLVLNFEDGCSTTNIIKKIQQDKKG

By IC50 is commonly meant the point on the concentration scale where inhibition reaches its midpoint. A low value points to higher potency. As to `O=P(O)(O)OC[C@@H](O)[C@H]1O[C@@H](CO)[C@@H](O)[C@@H](O)[C@@H]1O` [Example 11, 1-β-C-Hydroxymethylene 1-Deoxy-7-O-phosphoryl-D-glycero-D-manno-heptopyranose], the concentration for half-maximal inhibition (IC50) on GmhA of E. coli and at HldE of E. coli (HldE-K) was below 100 µM each time. `O=P(O)(O)OC[C@@H](O)[C@H]1O[C@H](F)[C@@H](O)[C@@H](O)[C@@H]1O` [Example 6, α-Fluoro 7-O-phosphoryl-D-glycero-α-D-manno-heptopyranoside]: the concentration for half-maximal inhibition (IC50) at GmhA of E. coli and at HldE of E. coli (HldE-K) was below 100 µM throughout. For the molecule `CC1(O)OC(C(O)COP(=O)(O)O)C(O)C(O)C1O` [Example 12, 1-C-Methyl 7-O-phosphoryl-D-glycero-α-D-manno-heptopyranose], the IC50 at GmhA of E. coli and against HldE of E. coli (HldE-K) was below 100 µM throughout. With `CO[C@H]1OC([C@H](O)COP(=O)(O)O)[C@@H](O)C(O)C1O` (stereo partly drawn) [Example 1, Methyl 7-O-phosphate-D-glycero-α-D-gluco-heptopyranoside], the IC50 against GmhA of E. coli and on HldE of E. coli (HldE-K) was below 100 µM throughout. Regarding `CO[C@@H]1O[C@H]([C@H](O)COP(=O)(O)O)[C@@H](O)[C@H](O)[C@@H]1O` [Example 3, 1-O-Methyl-D-glycero-β-D-manno-heptopyranose 7-phosphate], the IC50 against GmhA of E. coli is below 100 µM. On to `CCC[C@H]1O[C@H]([C@H](O)COP(=O)(O)O)[C@@H](O)[C@H](O)[C@@H]1O` [Example 8, 1-Deoxy-1-propyl-D-glycero-α-D-manno-heptopyranose 7-phosphate], for which the IC50 on GmhA of E. coli and against HldE of E. coli (HldE-K) was below 100 µM each time. Consider `O=P(O)(O)OC[C@@H](O)[C@H]1O[C@@](O)(CO)[C@@H](O)[C@@H](O)[C@@H]1O` [Example 13, 1-C-Hydroxymethylene 7-O-phosphoryl-D-glycero-D-manno-heptopyranose], for which the half-inhibitory concentration (IC50) at GmhA of E. coli and against HldE of E. coli (HldE-K) was below 100 µM throughout.
